Results as given in the kinase profiling compilation of Christmann-Franck et al. (2016).
One block for each compound: values may come before it.

Columns and labels:
PLK2 (human) = PLK2 (human) (UniProt Q9NYY3); assay: IMAP-FP
EIF2AK3 (human) = EIF2AK3 (human) (UniProt Q9NZJ5); assay: IMAP-FP
PKN1 (human) = PKN1 (human) (UniProt Q16512); assay: IMAP-FP
SRPK1 (human) = SRPK1 (human) (UniProt Q96SB4); assay: IMAP-FP
MAP3K9 (human) = MAP3K9 (human) (UniProt P80192); assay: ELISA
MOS (human) = MOS (human) (UniProt P00540); assay: ELISA
TTK (human) = TTK (human) (UniProt P33981); assay: ELISA
RAF1 (human) = RAF1 (human) (UniProt P04049); assay: ELISA
STK11 (human) = STK11 (human) (UniProt Q15831); assay: ELISA
MAP3K1 (human) = MAP3K1 (human) (UniProt Q13233); assay: ELISA
MAP2K7 (human) = MAP2K7 (human) (UniProt O14733); assay: ELISA
PLK4 (human) = PLK4 (human) (UniProt O00444); assay: ELISA
MAP2K4 (human) = MAP2K4 (human) (UniProt P45985); assay: ELISA
MAP2K6 (human) = MAP2K6 (human) (UniProt P52564); assay: ELISA
WEE1 (human) = WEE1 (human) (UniProt P30291); assay: ELISA
MAP3K3 (human) = MAP3K3 (human) (UniProt Q99759); assay: ELISA
MAP2K3 (human) = MAP2K3 (human) (UniProt P46734); assay: ELISA
MAP3K8 (human) = MAP3K8 (human) (UniProt P41279); assay: ELISA
MAP3K10 (human) = MAP3K10 (human) (UniProt Q02779); assay: ELISA
MAP2K2 (human) = MAP2K2 (human) (UniProt P36507); assay: ELISA
MAP2K1 (human) = MAP2K1 (human) (UniProt Q02750); assay: ELISA
MAP3K12 (human) = MAP3K12 (human) (UniProt Q12852); assay: ELISA
MAP3K5 (human) = MAP3K5 (human) (UniProt Q99683); assay: ELISA
MAP3K4 (human) = MAP3K4 (human) (UniProt Q9Y6R4); assay: ELISA
BMPR1A (human) = BMPR1A (human) (UniProt P36894); assay: ELISA
MAP2K5 (human) = MAP2K5 (human) (UniProt Q13163); assay: ELISA
MAP3K2 (human) = MAP3K2 (human) (UniProt Q9Y2U5); assay: ELISA
MAP4K2 (human) = MAP4K2 (human) (UniProt Q12851); assay: Caliper, Mobility shift assay off-chip
INSR (human) = INSR (human) (UniProt P06213); assay: Caliper, Mobility shift assay off-chip
CHEK1 (human) = CHEK1 (human) (UniProt O14757); assay: Caliper, Mobility shift assay off-chip
STK38 (human) = STK38 (human) (UniProt Q15208); assay: Caliper, Mobility shift assay off-chip
EIF2AK2 (human) = EIF2AK2 (human) (UniProt P19525); assay: IMAP-FP
LIMK1 (human) = LIMK1 (human) (UniProt P53667); assay: ELISA
MAP3K11 (human) = MAP3K11 (human) (UniProt Q16584); assay: ELISA
BRAF (human) = BRAF (human) (UniProt P15056); assay: ELISA

Sequence of RAF1 (human) (P04049 whole entry, looked up): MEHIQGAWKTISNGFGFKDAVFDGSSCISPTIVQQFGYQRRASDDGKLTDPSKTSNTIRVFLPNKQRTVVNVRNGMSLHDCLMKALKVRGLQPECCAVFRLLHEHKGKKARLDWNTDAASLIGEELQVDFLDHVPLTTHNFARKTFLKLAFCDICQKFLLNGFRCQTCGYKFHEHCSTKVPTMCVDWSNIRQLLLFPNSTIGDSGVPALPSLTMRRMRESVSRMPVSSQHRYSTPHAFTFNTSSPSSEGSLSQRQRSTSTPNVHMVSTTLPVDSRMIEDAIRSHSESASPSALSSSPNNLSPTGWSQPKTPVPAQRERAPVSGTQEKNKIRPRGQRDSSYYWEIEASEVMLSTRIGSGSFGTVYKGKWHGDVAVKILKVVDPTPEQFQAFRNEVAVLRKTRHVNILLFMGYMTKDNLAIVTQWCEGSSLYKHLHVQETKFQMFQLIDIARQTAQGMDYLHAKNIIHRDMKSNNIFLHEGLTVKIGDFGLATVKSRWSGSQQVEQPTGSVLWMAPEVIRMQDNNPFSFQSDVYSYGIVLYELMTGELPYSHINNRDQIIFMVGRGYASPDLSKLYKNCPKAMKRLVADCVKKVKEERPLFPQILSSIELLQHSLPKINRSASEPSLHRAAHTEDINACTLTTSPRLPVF
Sequence of MAP3K2 (human) (Q9Y2U5 whole entry, looked up): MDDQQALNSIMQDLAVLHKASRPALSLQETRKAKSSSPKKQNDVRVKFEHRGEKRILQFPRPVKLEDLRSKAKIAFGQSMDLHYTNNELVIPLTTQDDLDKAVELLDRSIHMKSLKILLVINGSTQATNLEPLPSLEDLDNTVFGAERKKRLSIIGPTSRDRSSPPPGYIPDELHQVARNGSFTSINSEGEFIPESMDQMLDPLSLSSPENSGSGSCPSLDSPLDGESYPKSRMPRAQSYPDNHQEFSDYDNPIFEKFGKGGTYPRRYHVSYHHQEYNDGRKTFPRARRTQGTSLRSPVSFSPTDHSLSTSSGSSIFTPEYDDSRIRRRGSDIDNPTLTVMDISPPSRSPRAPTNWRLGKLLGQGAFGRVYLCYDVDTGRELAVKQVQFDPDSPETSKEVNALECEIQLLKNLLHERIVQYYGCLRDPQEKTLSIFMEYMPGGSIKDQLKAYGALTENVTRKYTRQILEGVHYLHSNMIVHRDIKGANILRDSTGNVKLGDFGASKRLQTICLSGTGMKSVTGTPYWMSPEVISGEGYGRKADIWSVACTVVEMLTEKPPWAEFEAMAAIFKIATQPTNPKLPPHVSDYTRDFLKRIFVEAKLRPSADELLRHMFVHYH
Sequence of SRPK1 (human) (Q96SB4 whole entry, looked up): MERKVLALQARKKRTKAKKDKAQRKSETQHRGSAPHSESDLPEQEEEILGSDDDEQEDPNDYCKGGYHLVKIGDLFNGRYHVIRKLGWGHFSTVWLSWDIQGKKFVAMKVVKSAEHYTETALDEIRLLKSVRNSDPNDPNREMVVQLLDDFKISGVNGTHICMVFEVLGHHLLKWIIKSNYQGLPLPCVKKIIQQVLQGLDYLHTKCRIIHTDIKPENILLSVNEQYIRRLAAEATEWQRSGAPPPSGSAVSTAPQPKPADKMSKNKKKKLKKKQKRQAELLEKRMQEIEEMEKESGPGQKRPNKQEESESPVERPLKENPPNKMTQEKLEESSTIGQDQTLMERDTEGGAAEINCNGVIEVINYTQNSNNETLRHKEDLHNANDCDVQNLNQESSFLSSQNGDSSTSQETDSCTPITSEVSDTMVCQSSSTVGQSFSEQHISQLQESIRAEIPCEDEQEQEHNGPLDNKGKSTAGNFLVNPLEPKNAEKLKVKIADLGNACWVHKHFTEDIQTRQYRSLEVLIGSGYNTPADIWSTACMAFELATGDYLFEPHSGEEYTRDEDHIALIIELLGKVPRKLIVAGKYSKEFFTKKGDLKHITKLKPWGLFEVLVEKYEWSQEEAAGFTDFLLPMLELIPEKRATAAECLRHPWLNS
Sequence of MAP3K8 (human) (P41279 whole entry, looked up): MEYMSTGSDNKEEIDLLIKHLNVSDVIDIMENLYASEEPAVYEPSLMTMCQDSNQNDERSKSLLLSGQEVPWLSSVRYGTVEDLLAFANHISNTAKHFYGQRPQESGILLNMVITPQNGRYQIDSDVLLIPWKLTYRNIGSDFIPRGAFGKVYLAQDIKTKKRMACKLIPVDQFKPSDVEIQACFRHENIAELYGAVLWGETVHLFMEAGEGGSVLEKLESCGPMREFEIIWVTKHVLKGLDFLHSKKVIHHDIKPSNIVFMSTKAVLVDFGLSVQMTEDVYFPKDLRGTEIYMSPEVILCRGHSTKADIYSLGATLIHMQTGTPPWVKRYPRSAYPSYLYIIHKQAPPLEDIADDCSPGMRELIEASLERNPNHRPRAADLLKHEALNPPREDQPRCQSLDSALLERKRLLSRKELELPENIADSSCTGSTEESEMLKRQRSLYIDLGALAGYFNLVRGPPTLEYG
Sequence of MAP3K3 (human) (Q99759 whole entry, looked up): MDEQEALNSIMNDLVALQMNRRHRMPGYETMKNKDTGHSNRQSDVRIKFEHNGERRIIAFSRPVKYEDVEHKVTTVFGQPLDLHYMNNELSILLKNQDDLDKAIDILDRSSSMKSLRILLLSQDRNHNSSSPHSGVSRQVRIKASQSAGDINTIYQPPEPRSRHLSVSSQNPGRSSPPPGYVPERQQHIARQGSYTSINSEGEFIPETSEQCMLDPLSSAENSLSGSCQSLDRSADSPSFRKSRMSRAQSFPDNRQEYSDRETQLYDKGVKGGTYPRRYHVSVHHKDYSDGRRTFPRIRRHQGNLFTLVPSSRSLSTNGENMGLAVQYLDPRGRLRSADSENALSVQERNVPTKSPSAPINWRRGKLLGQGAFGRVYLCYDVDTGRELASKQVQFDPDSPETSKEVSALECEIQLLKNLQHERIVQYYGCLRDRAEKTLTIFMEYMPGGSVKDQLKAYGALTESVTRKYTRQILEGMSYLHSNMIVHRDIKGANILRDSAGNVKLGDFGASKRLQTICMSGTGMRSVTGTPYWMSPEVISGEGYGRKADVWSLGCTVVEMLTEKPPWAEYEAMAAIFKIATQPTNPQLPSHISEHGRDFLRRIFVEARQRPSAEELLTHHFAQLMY
Sequence of MAP3K5 (human) (Q99683 whole entry, looked up): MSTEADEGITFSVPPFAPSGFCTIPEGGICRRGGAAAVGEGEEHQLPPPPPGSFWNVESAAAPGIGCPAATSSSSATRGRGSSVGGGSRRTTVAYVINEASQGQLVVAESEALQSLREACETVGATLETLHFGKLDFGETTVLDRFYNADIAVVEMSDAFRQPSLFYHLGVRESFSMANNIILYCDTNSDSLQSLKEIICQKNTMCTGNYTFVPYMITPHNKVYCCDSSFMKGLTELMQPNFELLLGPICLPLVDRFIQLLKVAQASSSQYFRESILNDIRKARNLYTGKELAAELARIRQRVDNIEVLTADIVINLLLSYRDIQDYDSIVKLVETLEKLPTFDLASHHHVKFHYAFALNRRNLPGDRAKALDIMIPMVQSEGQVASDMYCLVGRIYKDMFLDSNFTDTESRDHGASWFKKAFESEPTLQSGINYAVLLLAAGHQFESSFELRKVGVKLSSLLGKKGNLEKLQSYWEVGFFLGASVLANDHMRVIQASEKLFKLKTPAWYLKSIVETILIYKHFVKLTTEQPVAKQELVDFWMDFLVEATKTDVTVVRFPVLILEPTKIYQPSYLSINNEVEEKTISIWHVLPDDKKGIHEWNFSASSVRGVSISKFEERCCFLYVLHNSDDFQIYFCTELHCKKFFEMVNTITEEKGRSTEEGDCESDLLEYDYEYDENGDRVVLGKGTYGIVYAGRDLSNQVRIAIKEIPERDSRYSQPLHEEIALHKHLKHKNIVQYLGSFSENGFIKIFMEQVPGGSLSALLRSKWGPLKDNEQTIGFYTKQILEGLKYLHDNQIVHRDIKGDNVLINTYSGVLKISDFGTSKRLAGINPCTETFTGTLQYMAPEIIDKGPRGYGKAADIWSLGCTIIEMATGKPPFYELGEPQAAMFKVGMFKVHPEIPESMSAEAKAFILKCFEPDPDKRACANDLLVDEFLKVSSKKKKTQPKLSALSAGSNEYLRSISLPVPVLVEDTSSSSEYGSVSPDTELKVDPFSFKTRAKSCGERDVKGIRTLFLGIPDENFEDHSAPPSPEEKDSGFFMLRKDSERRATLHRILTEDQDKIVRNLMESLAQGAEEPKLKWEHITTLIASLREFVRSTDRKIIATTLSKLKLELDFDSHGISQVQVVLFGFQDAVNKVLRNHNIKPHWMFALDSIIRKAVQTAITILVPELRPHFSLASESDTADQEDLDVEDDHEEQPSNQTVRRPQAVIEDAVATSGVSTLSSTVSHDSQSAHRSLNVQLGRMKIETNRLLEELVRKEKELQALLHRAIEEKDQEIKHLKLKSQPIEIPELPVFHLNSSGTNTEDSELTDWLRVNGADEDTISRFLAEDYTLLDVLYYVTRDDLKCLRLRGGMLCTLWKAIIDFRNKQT
Sequence of STK11 (human) (Q15831 whole entry, looked up): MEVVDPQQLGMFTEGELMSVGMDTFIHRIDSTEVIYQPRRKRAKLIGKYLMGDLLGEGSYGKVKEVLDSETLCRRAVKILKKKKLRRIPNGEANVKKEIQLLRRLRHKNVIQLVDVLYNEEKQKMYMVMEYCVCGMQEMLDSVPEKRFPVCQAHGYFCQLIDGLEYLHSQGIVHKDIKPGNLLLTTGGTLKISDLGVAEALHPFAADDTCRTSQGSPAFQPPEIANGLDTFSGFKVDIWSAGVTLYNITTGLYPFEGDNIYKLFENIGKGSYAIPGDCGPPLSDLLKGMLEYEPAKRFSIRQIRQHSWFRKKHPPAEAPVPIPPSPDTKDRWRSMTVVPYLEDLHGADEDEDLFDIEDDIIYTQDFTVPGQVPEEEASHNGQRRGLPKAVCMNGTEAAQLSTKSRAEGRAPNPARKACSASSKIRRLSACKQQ

- inhibition (PLK2 (human); compound 0.02 µM): 3.9%
- inhibition (PLK2 (human); compound 0.2 µM): -0.8%
- inhibition (EIF2AK3 (human); compound 0.02 µM): -15%
- inhibition (EIF2AK3 (human); compound 0.2 µM): -17%
- inhibition (PKN1 (human); compound 0.02 µM): -20.5%
- inhibition (PKN1 (human); compound 0.2 µM): -27.6%
- inhibition (SRPK1 (human); compound 0.02 µM): -6.8%
- inhibition (SRPK1 (human); compound 0.2 µM): -3.6%
- inhibition (MAP3K9 (human); compound 0.02 µM): 28.1%
- inhibition (MAP3K9 (human); compound 0.2 µM): 74.8%
- inhibition (MOS (human); compound 0.02 µM): -6.8%
- inhibition (MOS (human); compound 0.2 µM): 5%
- inhibition (TTK (human); compound 0.02 µM): -8.3%
- inhibition (TTK (human); compound 0.2 µM): 2.4%
- inhibition (RAF1 (human); compound 0.02 µM): 22.1%
- inhibition (RAF1 (human); compound 0.2 µM): 77.8%
- inhibition (STK11 (human); compound 0.02 µM): 0.6%
- inhibition (MAP3K1 (human); compound 0.02 µM): -1%
- inhibition (MAP3K1 (human); compound 0.2 µM): 3.7%
- inhibition (MAP2K7 (human); compound 0.02 µM): 3.2%
- inhibition (MAP2K7 (human); compound 0.2 µM): 0.2%
- inhibition (PLK4 (human); compound 0.02 µM): 8.8%
- inhibition (PLK4 (human); compound 0.2 µM): 22.3%
- inhibition (MAP2K4 (human); compound 0.02 µM): 8.7%
- inhibition (MAP2K4 (human); compound 0.2 µM): 9.5%
- inhibition (MAP2K6 (human); compound 0.02 µM): 7.1%
- inhibition (MAP2K6 (human); compound 0.2 µM): 24.5%
- inhibition (WEE1 (human); compound 0.02 µM): -3.7%
- inhibition (WEE1 (human); compound 0.2 µM): -3.5%
- inhibition (MAP3K3 (human); compound 0.02 µM): 4.7%
- inhibition (MAP3K3 (human); compound 0.2 µM): 39.5%
- inhibition (MAP2K3 (human); compound 0.02 µM): -3.4%
- inhibition (MAP2K3 (human); compound 0.2 µM): 5.5%
- inhibition (MAP3K8 (human); compound 0.02 µM): -2.6%
- inhibition (MAP3K8 (human); compound 0.2 µM): -1.1%
- inhibition (MAP3K10 (human); compound 0.02 µM): 8.1%
- inhibition (MAP3K10 (human); compound 0.2 µM): 17.3%
- inhibition (MAP2K2 (human); compound 0.02 µM): -7.4%
- inhibition (MAP2K2 (human); compound 0.2 µM): -4%
- inhibition (MAP2K1 (human); compound 0.02 µM): -3.2%
- inhibition (MAP2K1 (human); compound 0.2 µM): -5.7%
- inhibition (MAP3K12 (human); compound 0.02 µM): 8.5%
- inhibition (MAP3K12 (human); compound 0.2 µM): 25%
- inhibition (MAP3K5 (human); compound 0.02 µM): 1.9%
- inhibition (MAP3K5 (human); compound 0.2 µM): 8.3%
- inhibition (MAP3K4 (human); compound 0.02 µM): -1.5%
- inhibition (MAP3K4 (human); compound 0.2 µM): 3%
- inhibition (BMPR1A (human); compound 0.02 µM): 0.4%
- inhibition (BMPR1A (human); compound 0.2 µM): 6.5%
- inhibition (MAP2K5 (human); compound 0.02 µM): -16.9%
- inhibition (MAP2K5 (human); compound 0.2 µM): 0%
- inhibition (MAP3K2 (human); compound 0.02 µM): -4%
- inhibition (MAP3K2 (human); compound 0.2 µM): 12%
- inhibition (MAP4K2 (human); compound 0.02 µM): 2.6%
- inhibition (MAP4K2 (human); compound 0.2 µM): 28.7%
- inhibition (INSR (human); compound 0.02 µM): 0.3%
- inhibition (INSR (human); compound 0.2 µM): 4.5%
- inhibition (CHEK1 (human); compound 0.02 µM): 1.8%
- inhibition (CHEK1 (human); compound 0.2 µM): 0.3%
- inhibition (STK38 (human); compound 0.02 µM): 0.1%
- inhibition (STK38 (human); compound 0.2 µM): 7.5%
SMILES: Cc1ccc(Nc2nccc(N(C)c3ccc4c(C)n(C)nc4c3)n2)cc1S(N)(=O)=O

- inhibition (PLK2 (human); compound 0.2 µM): -4.7%
- inhibition (PLK2 (human); compound 4.0 µM): 4.2%
- inhibition (EIF2AK3 (human); compound 0.2 µM): -15%
- inhibition (EIF2AK3 (human); compound 4.0 µM): -5.4%
- inhibition (PKN1 (human); compound 0.2 µM): -2.2%
- inhibition (PKN1 (human); compound 4.0 µM): 57.1%
- inhibition (EIF2AK2 (human); compound 0.2 µM): 29.1%
- inhibition (EIF2AK2 (human); compound 4.0 µM): 88.4%
- inhibition (SRPK1 (human); compound 0.2 µM): -0.7%
- inhibition (SRPK1 (human); compound 4.0 µM): 39.6%
- inhibition (MOS (human); compound 0.2 µM): 2.5%
- inhibition (MOS (human); compound 4.0 µM): 29.9%
- inhibition (TTK (human); compound 0.2 µM): 11.5%
- inhibition (TTK (human); compound 4.0 µM): 89.7%
- inhibition (RAF1 (human); compound 0.2 µM): -61.4%
- inhibition (RAF1 (human); compound 4.0 µM): -88.1%
- inhibition (STK11 (human); compound 0.2 µM): 4.3%
- inhibition (STK11 (human); compound 4.0 µM): 28.1%
- inhibition (MAP3K1 (human); compound 0.2 µM): 15.9%
- inhibition (MAP3K1 (human); compound 4.0 µM): -29.8%
- inhibition (LIMK1 (human); compound 0.2 µM): -0.7%
- inhibition (LIMK1 (human); compound 4.0 µM): 31.7%
- inhibition (MAP3K11 (human); compound 0.2 µM): 30.9%
- inhibition (MAP3K11 (human); compound 4.0 µM): 89.4%
- inhibition (MAP2K7 (human); compound 0.2 µM): 2.2%
- inhibition (MAP2K7 (human); compound 4.0 µM): -3.6%
- inhibition (BRAF (human); compound 0.2 µM): -51%
- inhibition (BRAF (human); compound 4.0 µM): -60.8%
- inhibition (PLK4 (human); compound 0.2 µM): 30.3%
- inhibition (PLK4 (human); compound 4.0 µM): 82.7%
- inhibition (MAP2K4 (human); compound 0.2 µM): 2.8%
- inhibition (MAP2K4 (human); compound 4.0 µM): 51.9%
- inhibition (MAP2K6 (human); compound 0.2 µM): 21.1%
- inhibition (MAP2K6 (human); compound 4.0 µM): 87.3%
- inhibition (WEE1 (human); compound 0.2 µM): 10%
- inhibition (WEE1 (human); compound 4.0 µM): 65.3%
- inhibition (MAP3K3 (human); compound 0.2 µM): 56.3%
- inhibition (MAP3K3 (human); compound 4.0 µM): 95.5%
- inhibition (MAP2K3 (human); compound 0.2 µM): -2%
- inhibition (MAP3K8 (human); compound 0.2 µM): -5.3%
- inhibition (MAP3K8 (human); compound 4.0 µM): -9.2%
- inhibition (MAP3K10 (human); compound 0.2 µM): 1.2%
- inhibition (MAP3K10 (human); compound 4.0 µM): 11%
- inhibition (MAP2K2 (human); compound 0.2 µM): 70.1%
- inhibition (MAP2K2 (human); compound 4.0 µM): 99%
- inhibition (MAP2K1 (human); compound 0.2 µM): 73.2%
- inhibition (MAP3K12 (human); compound 0.2 µM): 59.5%
- inhibition (MAP3K12 (human); compound 4.0 µM): 96.5%
- inhibition (MAP3K5 (human); compound 0.2 µM): -0.6%
- inhibition (MAP3K5 (human); compound 4.0 µM): 60.6%
- inhibition (MAP3K4 (human); compound 0.2 µM): -4.9%
- inhibition (MAP3K4 (human); compound 4.0 µM): 17.5%
- inhibition (BMPR1A (human); compound 0.2 µM): -3.8%
- inhibition (BMPR1A (human); compound 4.0 µM): -7.3%
- inhibition (MAP2K5 (human); compound 0.2 µM): 32.7%
- inhibition (MAP2K5 (human); compound 4.0 µM): 91.8%
- inhibition (MAP3K2 (human); compound 0.2 µM): 52.1%
- inhibition (MAP3K2 (human); compound 4.0 µM): 95.7%
- inhibition (MAP4K2 (human); compound 0.2 µM): 69.5%
- inhibition (CHEK1 (human); compound 0.2 µM): 59.3%
- inhibition (CHEK1 (human); compound 4.0 µM): 95.2%
- inhibition (STK38 (human); compound 0.2 µM): 8.9%
- inhibition (STK38 (human); compound 4.0 µM): 45.1%
SMILES: CCN(CC)CCNC(=O)c1c(C)[nH]c(/C=C2\C(=O)Nc3ccc(F)cc32)c1C
